In ChEMBL document CHEMBL1201862, “PubChem BioAssay data set” (2004):
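Following 48 hours of exposure in 96-well plates, responses at five concentrations were used to interpolate endpoints linearly. GI50: concentration for 50% inhibition of growth.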 Activity calls are given as the source filed them. Rule as the data show it: active = GI50 up to about 1.1 µM and inactive = higher.

Experiments:
Assay in all cases: NCI anticancer screen, dose series, 48 h
MOLT-4 = test system: MOLT-4
HOP-92 = test system: HOP-92
MCF7 = test system: MCF7
RXF 393 = test system: RXF 393
M14 = test system: M14
KM12 = test system: KM12
786-0 = test system: 786-0
RPMI-8226 = test system: RPMI-8226
TK-10 = test system: TK-10
HCT-116 = test system: HCT-116
NCI-H226 = test system: NCI-H226
SK-MEL-28 = test system: SK-MEL-28
HCC 2998 = test system: HCC 2998
EKVX = test system: EKVX
NCI-H522 = test system: NCI-H522
SR = test system: SR
NCI-H23 = test system: NCI-H23
HT-29 = test system: HT-29
SNB-78 = test system: SNB-78
MDA-MB-435 = test system: MDA-MB-435

Row | SMILES | GI50 (MOLT-4) | GI50 (HOP-92) | GI50 (MCF7) | GI50 (RXF 393) | GI50 (M14) | GI50 (KM12) | GI50 (786-0) | GI50 (RPMI-8226) | GI50 (TK-10) | GI50 (HCT-116) | GI50 (NCI-H226) | GI50 (SK-MEL-28) | GI50 (HCC 2998) | GI50 (EKVX) | GI50 (NCI-H522) | GI50 (SR) | GI50 (NCI-H23) | GI50 (HT-29) | GI50 (SNB-78) | GI50 (MDA-MB-435)
1 | CCCCCCCCCCCCCCCC(=O)OCC(C[As](=O)(O)O)OC(=O)CCCCCCCCCCCCCCC (stereo not given) | > 100 µM (inactive) | > 72.6 µM (inactive) | > 100 µM (inactive) | > 68.1 µM (inactive) | > 100 µM (inactive) | > 100 µM (inactive) | > 84.5 µM (inactive) | > 100 µM (inactive) | > 66.5 µM (inactive) | > 100 µM (inactive) | > 74.8 µM (inactive) | > 100 µM (inactive) | > 100 µM (inactive) | > 100 µM (inactive) | > 100 µM (inactive) | > 100 µM (inactive) | > 100 µM (inactive) | > 100 µM (inactive) | 22.4 µM (inactive) | > 100 µM (inactive)
2 | Cc1c(Cl)ccc2c1NC(=O)C2(O)CC(=O)c1ccc(Cl)cc1Cl (stereo not given) | 22.5 µM (inactive) | 23.6 µM (inactive) | > 50 µM (inactive) | 20.1 µM (inactive) | > 50 µM (inactive) | > 50 µM (inactive) | 27.2 µM (inactive) | > 41 µM (inactive) | 30.5 µM (inactive) | > 50 µM (inactive) | > 29.4 µM (inactive) | > 50 µM (inactive) | > 50 µM (inactive) | > 46.5 µM (inactive) | > 50 µM (inactive) | 0.264 µM (active) | > 47.1 µM (inactive) | > 50 µM (inactive) | 21.8 µM (inactive) | > 50 µM (inactive)
3 | Cc1cc(/N=C2\C=C(Nc3cc(C)on3)C(=O)c3ccccc32)no1 | > 100 µM (inactive) | 19 µM (inactive) | 7.46 µM (inactive) | 30.3 µM (inactive) | 34.7 µM (inactive) | > 71.8 µM (inactive) | 38.1 µM (inactive) | > 100 µM (inactive) | 55 µM (inactive) | 53.7 µM (inactive) | > 92 µM (inactive) | 60.5 µM (inactive) | > 100 µM (inactive) | > 66.2 µM (inactive) | > 100 µM (inactive) | > 100 µM (inactive) | 4.69 µM (inactive) | 49.7 µM (inactive) | 24.7 µM (inactive) | 7.24 µM (inactive)
